# Where two headings read alike, the source gives them in different places.
# Key:
# [1] = tested on: HCT-116, colorectal carcinoma; assay: Proliferation assay (MTS, 72 h), HCT-116; type: cell-based, human; conditions: Homo sapiens, HCT-116
# Excerpt: (§1) Human cancer cells used in this manuscript, namely Capan-1, HCT-116, NCI-H460, LN-229, HL-60, K-562, and Z-138, were acquired from the American Type Culture Collection (ATCC, Manassas, VA, USA), while the DND-41 cell line was purchased from the Deutsche Sammlung von Mikroorganismen und Zellkulturen (DSMZ Leibniz-Institut, Braunschweig, Germany). Culture media were purchased from Gibco Life Technologies, Merelbeke, Belgium, and supplemented with 10% fetal bovine serum (HyClone, Cytiva, Marlborough, MA, USA). Vincristine and docetaxel, which were used as the reference inhibitors, were purchased from Selleckchem (Munich, Germany). Stock solutions were prepared in DMSO.
# (§2) Adherent cell lines LN-229, HCT-116, and NCI-H460 and Capan-1 cells were seeded at a density between 500 and 1500 cells per well, in 384-well tissue culture plates (Greiner, Kremsmünster, Austria). After overnight incubation, the cells were treated with seven different concentrations of the test compounds, ranging from 100 to 0.006 µM.
# (§3) Suspension cell lines HL-60, K-562, Z-138, and DND-41 were seeded at densities ranging from 2500 to 5500 cells per well in 384-well culture plates containing the test compounds at the same concentration points. The cells were incubated for 72 h with the compounds and were then analyzed using the CellTiter 96® AQueous One Solution Cell Proliferation Assay (MTS) reagent (Promega, Madison, WI, USA) according to the manufacturer’s instructions. […] The compounds were tested in two independent experiments.
# [2] = tested on: K-562, chronic myeloid leukemia; assay: Proliferation assay (MTS, 72 h), K-562; type: cell-based, human; conditions: Homo sapiens, K562
# Excerpt: as §1, §2, §3
# [3] = tested on: Capan-1, pancreatic adenocarcinoma; assay: Proliferation assay (MTS, 72 h), Capan-1; type: cell-based, human; conditions: Homo sapiens, CAPAN-1
# Excerpt: as §1, §2, §3
# [4] = tested on: influenza A/H3N2 (A/HK/7/87); assay: Antiviral CPE reduction assay, influenza A/H3N2 in MDCK; type: cell-based; conditions: Influenza A virus, MDCK cells, 100 CCID50, MTS
# [5] = tested on: human coronavirus HCoV-NL63; assay: Antiviral CPE reduction assay, HCoV-NL63 in Huh-7; type: cell-based; conditions: Huh-7 cells, 100 CCID50, MTS
# [6] = tested on: HL-60, acute myeloid leukemia; assay: Proliferation assay (MTS, 72 h), HL-60; type: cell-based, human; conditions: Homo sapiens, HL-60
# Excerpt: as §1, §2, §3
# [7] = tested on: influenza B (B/Ned/537/05); assay: Antiviral CPE reduction assay, influenza B in MDCK; type: cell-based; conditions: Influenza B virus; MDCK cells, 100 CCID50, MTS
# LN-229, glioblastoma = assay: Proliferation assay (MTS, 72 h), LN-229; type: cell-based, human; conditions: Homo sapiens, LN-229
# Excerpt: as §1, §2, §3
# [8] = tested on: Z-138, non-Hodgkin lymphoma; assay: Proliferation assay (MTS, 72 h), Z-138; type: cell-based, human; conditions: Homo sapiens, Z-138
# Excerpt: as §1, §2, §3
# NCI-H460, lung carcinoma = assay: Proliferation assay (MTS, 72 h), NCI-H460; type: cell-based, human; conditions: Homo sapiens, NCI-H460
# Excerpt: as §1, §2, §3
# in vitro [9] = conditions: human
# in vitro [10] = conditions: dog
# [11] = tested on: respiratory syncytial virus A (Long); assay: Antiviral CPE reduction assay, RSV A in HEL 299; type: cell-based; conditions: human respiratory syncytial virus; HEL 299 cells, 100 CCID50, MTS
# [12] = tested on: yellow fever virus (YFV 17D); assay: microbe, parasite or virus in culture; type: cell-based; conditions: Huh-7, read-out: Antiviral Activity (EC50/μM) YFV 17D Huh-7
# [13] = tested on: DND-41, acute lymphoblastic leukemia; assay: Proliferation assay (MTS, 72 h), DND-41; type: cell-based, human; conditions: Homo sapiens, DND41
# Excerpt: as §1, §2, §3
# Zika virus (Mr776) = assay: Antiviral CPE reduction assay, Zika virus in Huh-7; type: cell-based; conditions: Huh-7 cells, 100 CCID50, MTS
# in vitro [14] = conditions: human; remark: listed apart in the source
# [15] = tested on: human coronavirus HCoV-229E; assay: organism not typed; type: cell-based; conditions: HEL 299 cells, 100 CCID50, MTS; read-out: Antiviral Activity (EC50/μM) HCoV 229E HEL 299
# [16] = tested on: herpes simplex virus-1 (HSV-1 KOS); assay: Antiviral CPE reduction assay, HSV-1 KOS in HEL 299; type: cell-based; conditions: Human alphaherpesvirus 1; HEL 299 cells, 100 CCID50, MTS
# [17] = tested on: human coronavirus HCoV-OC43; assay: microbe, parasite or virus in culture; type: cell-based; conditions: Betacoronavirus 1, OC43; HEL 299 cells, 100 CCID50, MTS; read-out: Antiviral Activity (EC50/μM) HCoV OC43 HEL 299
# human cancer cell lines = assay: Proliferation assay (MTS, 72 h), range over several cancer cell lines; type: cell-based
# Excerpt: as §1
# Adherent cell lines LN-229, HCT-116, and NCI-H460 and Capan-1 cells were seeded at a density between 500 and 1500 cells per well, in 384-well tissue culture plates (Greiner, Kremsmünster, Austria). […]
# Suspension cell lines HL-60, K-562, Z-138, and DND-41 were seeded at densities ranging from 2500 to 5500 cells per well in 384-well culture plates containing the test compounds at the same concentration points. The cells were incubated for 72 h with the compounds and were then analyzed using the CellTiter 96® AQueous One Solution Cell Proliferation Assay (MTS) reagent (Promega, Madison, WI, USA) according to the manufacturer’s instructions. […]
# sindbis virus = assay: Antiviral CPE reduction assay, Sindbis virus in Huh-7; type: cell-based; conditions: Huh-7 cells, 100 CCID50, MTS
# [18] = tested on: influenza A/H1N1 (A/Ned/378/05); assay: Antiviral CPE reduction assay, influenza A/H1N1 in MDCK; type: cell-based; conditions: Influenza A virus, MDCK cells, 100 CCID50, MTS
# E. faecalis ATCC 29212 = assay: Broth microdilution MIC, E. faecalis; type: cell-based; conditions: Enterococcus faecalis, ATCC29212; read-out: MIC against E. faecalis
# Experimental: (§4) Selected bacterial strains were Gram-negative E. coli, K. pneumoniae, A. baumannii and P. aeruginosa and Gram-positive S. aureus, S. pneumoniae, and E. faecalis. The synthesized compounds were prepared as 10 mM DMSO solutions and tested in a final concentration range of 0.2–100 µM [39].
# (§5) Broth microdilution testing was performed according to CLSI (Clinical Laboratory Standards Institute) guidelines. The MIC (minimal inhibitory concentration) value was defined as the last tested concentration of the compound at which there was no visible growth of bacteria. Inoculums for each microorganism were prepared using the direct colony suspension method, where broth solutions that achieved turbidity equivalent to 0.5 McFarland standard were additionally diluted 100× with Ca adjusted MH media (Becton Dickinson, Franklin Lakes, NJ, USA). All of the test plates were incubated for 16–24 h at 37 °C.
# (§6) Methods for dilution of antimicrobial susceptibility tests for bacteria that grow aerobically followed M07, 11th edition, 2018, and Clinical and Laboratory Standards Institute (CLSI) guidelines. Performance standards for antimicrobial susceptibility testing followed the M100, 28th edition, 2018.
# E. coli efflux del = assay: microbe, parasite or virus in culture; type: cell-based; conditions: for MIC E. coli efflux del: Table 2 prints no unit, μM for compounds, antibiotics tested at 0.125–64 µg/mL
# Experimental: as §4, §5, §6
# [19] = tested on: K. pneumoniae ATCC 700603; assay: Broth microdilution MIC, K. pneumoniae; type: cell-based; conditions: Klebsiella pneumoniae, ATCC700603; read-out: MIC against K. pneumoniae
# Experimental: as §4, §5, §6
# S. aureus ATCC 29213 = assay: Broth microdilution MIC, S. aureus; type: cell-based; conditions: Staphylococcus aureus, ATCC29213; read-out: MIC against S. aureus
# Experimental: as §4, §5, §6
Compound,IC50 [1] [µM],IC50 [2] [µM],IC50 [3] [µM],EC50 [4] [µM],EC50 [5] [µM],IC50 [6] [µM],EC50 [7] [µM],"IC50 (LN-229, glioblastoma) [µM]",IC50 [8] [µM],"IC50 (NCI-H460, lung carcinoma) [µM]",CC50 (in vitro [10]) [µM],EC50 [11] [µM],EC50 [12] [µM],IC50 [13] [µM],EC50 (Zika virus (Mr776)) [µM],EC50 [15] [µM],EC50 [16] [µM],melting point [°C],MIC E. coli efflux del (E. coli efflux del),MIC (S. aureus ATCC 29213) [µM],also measured
"CCN(CC)c1ccc(/C=N/c2nc3ccc(C#N)cc3n2CC(C)C)c(O)c1 [Compound 31, (E)-2-((4-(Diethylamino)-2-hydroxybenzylidene)amino)-1-isobutyl-1H-benzo[d]imidazole-6-carbonitrile]",> 100,> 100,32.8,> 100,32,47.6,> 100,> 100,> 100,> 100,1.3,> 100,> 100,34.4,> 100,> 100,> 100,205 to 208,–,–,"CC50 (in vitro [9]): > 100 µM; CC50 (in vitro [14]): 85.7 µM; EC50 [17]: > 100 µM; IC50 (human cancer cell lines; three cancer cell types, read-out: IC50, range over three cancer cell types): 32.8 to 47.6 µM; EC50 (sindbis virus): > 100 µM; EC50 [18]: > 100 µM"
"CCCCCCn1c(N)nc2ccccc21 [Compound 23, 2-Amino-1-hexylbenzimidazole]",57.4,46.7,46.5,–,–,44.9,–,45.2,44.7,60.2,–,–,–,47.7,–,–,–,–,32,16,"MIC (E. faecalis ATCC 29212): 32 µM; MIC (E. coli efflux del; Escherichia coli, read-out: MIC against E. coli efflux dell): 32 µM; MIC [19]: 32 µM"
"CCCCCCn1c(/N=C/c2ccc(N(C)C)cc2)nc2ccccc21 [Compound 42, (E)-4-(((1-Hexyl-1H-benzo[d]imidazol-2-yl)imino)methyl)-N,N-dimethylaniline]",> 100,90.8,> 100,> 100,> 100,73.2,> 100,> 100,> 100,64.4,34.6,> 100,> 100,> 100,> 100,34.7,> 100,231 to 234,64,32,MIC (E. faecalis ATCC 29212): 32 µM; EC50 [17]: > 100 µM; EC50 (sindbis virus): > 100 µM; EC50 [18]: > 100 µM
"Cn1c(/N=C/c2ccc([N+](=O)[O-])cc2)nc2ccc(C#N)cc21 [Compound 37, (E)-1-Methyl-2-((4-nitrobenzylidene)amino)-1H-benzo[d]imidazole-6-carbonitrile]",> 100,> 100,> 100,–,–,> 100,–,> 100,> 100,> 100,–,–,–,> 100,–,–,–,–,>64,32,–
"CCN(CC)c1ccc(/C=N/c2nc3ccccc3n2-c2ccccc2)c(O)c1 [Compound 40, (E)-5-(Diethylamino)-2-(((1-phenyl-1H-benzo[d]imidazol-2-yl)imino)methyl)phenol]",9.6,12.9,2.4,–,–,1.1,–,21.5,4.4,43.7,–,–,–,2.2,–,–,–,197 to 201,–,–,"IC50 (human cancer cell lines; Capan-1, DND-41, HL-60 and Z-138 cancer cell lines, read-out: IC50, range over several cancer cell lines): 1.1 to 4.4 µM"

# From publication PMC10180076, “Novel Biologically Active N-Substituted Benzimidazole Derived Schiff Bases: Design, Synthesis, and Biological Evaluation” (Molecules, 2023)
